According to patent publication US12398110B2, “Second generation inhibitors of mitochondrial permeability transition pore with improved plasma stability” (Oregon Health & Science University, priority 2019, dated 2025):

Columns and labels:
mtPTP = assay: Ca2+ retention capacity (CRC) of isolated mouse liver mitochondria; assay type: biochemical
Description: CRC determines the Ca^2+ threshold required for mtPTP activation; inhibitors of mtPTP are expected to increase the Ca^2+ threshold required for mtPTP induction. Extramitochondrial Ca^2+ changes are detected using the membrane-impermeant Ca^2+ indicator, Calcium Green-5N.
Isolation of mitochondria. C57BL6/N mouse liver mitochondria were prepared from 2 to 6 month old male mice by standard differential centrifugation. Mice fed ad libitum were euthanized with CO2 followed cervical dislocation, their livers were existed and placed in a glass beaker containing ice-cold isolation buffer (IB: 0.25 m sucrose, 10 mm Tris-HCl, 0.1 mm EGTA-Tris, pH 7.4) supplemented with fatty acid free bovine serum albumin. Livers were then cut into small pieces with scissors, rinsed with ice-cold IB, and passed through a pre-chilled Potter homogenizer with Teflon pestle. The homogenate (˜30 mL per liver) was transferred to centrifuge tubes, and unbroken cells and nuclei were removed by centrifugation at 700 g for 10 min at 4° C. The supernatant containing mitochondria and other organelles was transferred to new tubes and centrifuged at 6000 g for 10 min at 4° C. The resulting supernatant was discarded and mitochondrial pellet was carefully suspended in ice-cold IB and spun at 9500 g for 5 min at 4° C. The pellet was suspended in IB to give a protein concentration of ˜60-80 mg/mL and stored on ice. Experiments were started immediately and completed within 5 h. Protein concentration was determined by the Biuret method.
Assessment of Ca^2+ retention capacity (CRC). CRC of isolated mouse liver mitochondria was assessed as follows: First, 0.1 mL of SAB were dispensed to a 96-well black assay plate in the presence of 2% DMSO (control wells) or varying concentrations of test compounds, in 1:2 serial dilutions. Then, 0.1 mL of 0.5 mg/mL mitochondria in SAB devoid of respiratory substrates, but supplemented with 1 μm Calcium Green-5N were added to all wells of the assay plate. A train of 10 μm CaCl2 pulses was added at 2 min intervals, and fluorescence intensity (ex/em 485/535 nm) was read on Tecan Infinite F200 plate reader.

[1] = test system: col6a1 zebrafish morphants; assay: OCR measurement on entire col6a1 morphant zebrafish embryos; assay type: in vivo; conditions: 48 hpf, 10 μm
From the text: To test the effects of both TR001 and 63 on the respiration of col6a1 morphant embryos, we measured the OCR on entire embryos at 48 hpf. […] Moreover, TR001 at a concentration of 10 μm was able to fully restore the maximal respiratory capacity (FIG. 6D, left panel, open diamonds, p<0.001) of col6a1 morphants.
Morpholino antisense injection and treatment. Knock-down of col6a1 gene expression was obtained with a previously published morpholino ^[25] with sequence GAGAGCGGAAGACGAACCTTCATTC (SEQ ID NO: 2; GeneTools, Inc.). A control morpholino with no sequence homology in the zebrafish genome was used in parallel (CCTCTTACCTCAGTTACAATTTATA; SEQ ID NO: 3). Zebrafish eggs from wild-type matings were injected at the 1-2 cell stage with approximately 10 nL of 0.1 mm morpholino solution (corresponding to 4 ng of morpholino) using a WPI pneumatic PicoPump PV820 injector (World Precision Instruments, Inc.). […]
OCR measurement. […] First, basal respiration was measured. Second, respiration due to ATP synthase was measured after addition of 10 μm oligomycin (Merck Millipore-495455). Third, maximal respiration capacity was measured by adding 2 μm of the uncoupler carbonyl cyanide-4-(trifluoromethoxy)phenylhydrazone (FCCP, Sigma-Aldrich, C2920). […]

[2] = test system: col6a1 zebrafish morphants; assay: Spontaneous coiling events in col6a1 zebrafish morphants; assay type: in vivo; conditions: 24 hpf, 3 hours of treatment, 0.1, 1 or 10 μm
Description: Zebrafish embryos were injected with col6a1 morpholino at the 1-cell stage, dechorionated at 20 hpf and treated at 21 hpf with 0.1, 1 or 10 μm of either TR001 or 63. DMSO-treated embryos injected with a scrambled morpholino were used as a control. […] It should be noted that in these protocols, embryos were exposed to drugs for a longer period of time than in the spontaneous coiling experiments. This difference may help to explain why TR001 was as effective at 0.1 μm as it was at 1 and 10 μm.
Morpholino antisense injection and treatment. Knock-down of col6a1 gene expression was obtained with a previously published morpholino ^[25] with sequence GAGAGCGGAAGACGAACCTTCATTC (SEQ ID NO: 2; GeneTools, Inc.). A control morpholino with no sequence homology in the zebrafish genome was used in parallel (CCTCTTACCTCAGTTACAATTTATA; SEQ ID NO: 3). […]
Motor activity. The number of spontaneous coiling events performed in 15 seconds by single zebrafish embryos was recorded at 24 hpf by light microscopy. Touch-evoked escape responses were recorded at 48 hpf by observing the ability of zebrafish embryos to escape after a tail-touch with a little tip. […]

With `Cc1ccc(Cl)cc1NC(=O)c1cn(-c2ccc(F)c(O)c2)nn1` [TR001, N-(5-chloro-2-methylphenyl)-1-(4-fluoro-3-hydroxyphenyl)-1H-1,2,3-triazole-4-carboxamide] the “CRC effect in combination with CsA” value (mtPTP; TR001 in combination with 2 μm CsA) was “additive with CsA”, the “CRC/CRC0 at 1.25 μM” value (mtPTP; compound treated CRC to DMSO treated CRC0 ratio, 1.25 μM, average ± SEM, n = 3-25) was 6.8 ± 0.4 and the “maximal efficacy as defined by CRC/CRC0 ratio” value (mtPTP; mouse liver mitochondria) was ~10. For the same molecule, the “maximal respiratory capacity (OCR) of col6a1 morphants” value [1] was “fully restore” and the spontaneous coiling events [2] was “partially rescued the defect”.
